# Assay results from patent US20200281928A1, “VITAMIN B1 IN HIGH DOSES FOR USE IN THE MEDICAL TREATMENT OF MOTOR SYMPTOMS OF SOME SPORADIC NEURODEGENERATIVE DISEASES, OF GENETIC ORIGIN, AND OF CLUSTER HEADACHE AND OF MIGRAINE HEADACHE” (priority 2017, published 2020).
# Where two headings read alike, the source gives them in different places.
# How the values were obtained:
# Dystonia 1 (DYT1) = conditions: for Fahn-Mardsen motion scale after treatment: scale 0-120; for Fahn-Mardsen disability scale after treatment: scale 0-30
# Experimental: The studied patients were two, a person and a person, parent and child. The disease is genetic and has a transmission of dominant type. The diagnosis was made in primary neurological centres based upon anamnestic, clinical and laboratory data.
# They were evaluated with Fahn-Mardsen scale of dystonia (Fahn-Mardsen Rating Scale). This scale consists of two sub-scales: 1) motion scale 2) disability scale. The first one ranges from 0 (no motion disorder) to 120 (maximum intensity and extension of the motion dystonic disorder). The second one ranges from 0 (no disability) to 30 (maximum disability)
# Huntington's Chorea = conditions: one patient, two vials intramuscularly 100 mg/ml per week, two months
# Experimental: We evaluated and treated one single patient. The disease is genetic and it has dominant transmission. The diagnosis was made in primary neurological centres based upon anamnestic, clinical and laboratory data. […] The first symptoms appeared about six years ago.
# The patient, 56 years […], was evaluated with Unified Huntington's Disease Rating Scale (UHDRS). The scale consists of 31 items and ranges from 0 scores (absence of choreic motions) to 124 scores (maximum intensity and extension on the body of the involuntary motions of choreic type).
# The first evaluation, before treatment was performed on Jun. 7, 2016, the second one, after two months of treatment with two vials intramuscularly 100 mg/ml per week was performed on Sep. 9, 2016.
# Migraine Headache = conditions: for MIDAS after treatment: after 30 days, scale 0-25
# Experimental: Migraine headache is the headache form characterized by a recurrent pain involving one only side of the head. The pulsating headache can last from four hours until three days and it is accompanied by nausea, vomiting, photophobia. The causes are poorly known. We studied two female patients starting from January 2017.
# The patients were evaluated with Migraine Disability Assessment Test (MIDAS) evaluation scale before starting the treatment and every 30 days after starting the treatment, which started in January 2017. The score of this scale ranges from 0 (absence of symptoms) to 25 (maximum disability, maximum negative influence in the daily life activities).
# The thiamine dose was 300 mg orally each morning.
# The thiamine dose was 500 mg every morning orally.
# [1] = patient P1, two months of treatment
# [2] = patient P2, two months of treatment
# [3] = patient P2, two months of treatment, before treatment 4
smiles,measurement,setting,value
"Cc1ncc(C[n+]2csc(CCO)c2C)c(N)n1 [vitamin B1, thiamine]",improvement of disability scale,Dystonia 1 (DYT1); [1],35.8%
same,improvement of motion scale,Dystonia 1 (DYT1); [1],53.0%
same,Fahn-Mardsen motion scale after treatment,"Dystonia 1 (DYT1); patient P1, two months of treatment (dose not given), before treatment 66",31 scores
same,Fahn-Mardsen disability scale after treatment,"Dystonia 1 (DYT1); patient P1, two months of treatment, before treatment 14",9 scores
same,improvement of disability scale,Dystonia 1 (DYT1); [2],50.0%
same,improvement of motion scale,Dystonia 1 (DYT1); [2],50.0%
same,Fahn-Mardsen disability scale after treatment,Dystonia 1 (DYT1); [3],2 scores
same,Fahn-Mardsen motion scale after treatment,Dystonia 1 (DYT1); [3],2 scores
same,improvement of UHDRS,Huntington's Chorea,27.5%
same,UHDRS after treatment,"Huntington's Chorea; before treatment 62, scale 0-124",45 scores
same,days of treatment after which the regression of the episodes was already present,"Migraine Headache; migraine patients on oral thiamine, maintained by continuing the same treatment",7 days
same,MIDAS after treatment,"Migraine Headache; patient N1, 300 mg orally each morning, before treatment 19",0 scores
same,MIDAS after treatment,"Migraine Headache; patient N2 (person ten), 500 mg every morning orally, before treatment 20",0 scores
